{"source": "patent US20250221409A1", "about": "“COMPOSITION FOR POTENTIATING EFFECTS OF USEFUL SUBSTANCE” (KANEKA CORPORATION, priority 2022, published 2025)", "tested_on": "soybean leaves", "assay": "Promotion of herbicide (PQ) effects: SPAD values of soybean leaves after spraying test solutions", "format": "in vivo, soybean (variety Fukuyutaka)", "details": "Experimental Example 2-1 (FIG. 4); PQ 0.001 mass %, surfactin 0.001 mass %, lecithin 0.0005 mass %; 3 days after application", "experimental": "Culture soil was filled into 9-cm vinyl pots, and soybean seeds (the variety: Fukuyutaka) were seeded at 3 grains/pot. Cultivation was performed in a glass greenhouse, and, after germination, strains were thinned to retain a strain in a pot. The test solutions shown in Table 4 were sprayed on leaves 3 seeks after seeding. The test solutions were prepared by dissolving the components in water. The SPAD (soil and plant analyzer development) values of the leaves were measured using a chlorophyll meter (product name: SPAD-502Plus, Konica Minolta, Inc.) 3 days after application of the test solutions. The SPAD values are used as the indicators showing the chlorophyll amount of plants.\nCulture soil was filled into 9-cm vinyl pots, and soybean seeds (the variety: Fukuyutaka) were seeded at 3 grains/pot. Cultivation was performed in a glass greenhouse, and, after germination, strains were thinned to retain a strain in a pot. The test solutions shown in Table 5 were sprayed on leaves 3 seeks after seeding. The test solutions were prepared by dissolving the components in water. When lecithin was to be added, at the outset, lecithin was dissolved in water, and a biosurfactant was added to reach a given concentration. The SPAD values of the leaves were measured using a chlorophyll meter 3 days after application of the test solutions."}
{"smiles": "C[n+]1ccc(-c2cc[n+](C)cc2)cc1", "note": "[PQ, paraquat dichloride]", "values": [{"measurement": "SPAD values of the leaves", "result": "not substantially different from the SPAD values of the control"}]}
